Consider seven molecules from ChEMBL document CHEMBL5360635 (J Med Chem, 2023).

For orientation: IC50 means the point on the concentration scale where inhibition reaches its midpoint.

The test system of assay [1] is A549. Nature of the assay: Induction of replication stress in human A549 cells increase in 53BP1 bodies at 1 uM by DAPI staining based fluorescent microscopic analysis. It counts as functional, cell-based.
The test system of assay [2] is A549. Nature of the assay: Induction of replication stress in human A549 cells increase in micronuclei at 1 uM by DAPI staining based fluorescent microscopic analysis. It counts as functional, cell-based.
The test system of assay [3] is A549. Description: Induction of cell cycle arrest in human A549 cells assessed as accumulation at sub G1 phase incubated for 24 hrs by PI staining based flow cytometry. It counts as functional.
For assay [4], the system named is A549. Description: Induction of cell cycle arrest in human A549 cells assessed as accumulation at G1 phase incubated for 24 hrs by PI staining based flow cytometry. It counts as functional. (Flow cytometry measures light scatter and fluorescence of single cells or particles in a stream.)
Assay [5] addresses T1, Lysine-specific demethylase 4E (Homo sapiens, UniProt B2RXH2).
T1 sequence (B2RXH2 whole entry): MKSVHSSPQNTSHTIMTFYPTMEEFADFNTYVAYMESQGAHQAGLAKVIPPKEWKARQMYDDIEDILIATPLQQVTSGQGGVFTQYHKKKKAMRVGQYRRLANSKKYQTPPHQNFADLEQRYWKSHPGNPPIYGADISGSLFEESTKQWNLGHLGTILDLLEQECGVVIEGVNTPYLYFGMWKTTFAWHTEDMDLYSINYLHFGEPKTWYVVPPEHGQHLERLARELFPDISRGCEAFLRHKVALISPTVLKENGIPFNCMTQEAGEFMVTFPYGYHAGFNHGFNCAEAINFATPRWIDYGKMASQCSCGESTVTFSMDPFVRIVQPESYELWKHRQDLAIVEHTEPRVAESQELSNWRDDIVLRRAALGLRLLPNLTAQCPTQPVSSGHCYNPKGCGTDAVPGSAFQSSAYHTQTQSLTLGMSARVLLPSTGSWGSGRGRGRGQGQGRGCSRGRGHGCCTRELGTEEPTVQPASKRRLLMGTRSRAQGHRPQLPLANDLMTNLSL
Description: Inhibition of KDM4E (unknown origin) by SPE-MS analysis.

Assay [6] has as its target T1, Lysine-specific demethylase 4E. Description: Inhibition of KDM4E (unknown origin) by FDH-coupled spectrophotometric turnover assay.
Assay [7] is described as follows: Inhibition of N-terminal his6-tagged FIH (unknown origin) expressed in Escherichia coli using HIF-alpha CAD (788 to 822 residues) expressed in Escherichia coli by SPE-MS analysis. More on the design: species or system Homo sapiens.
For assay [8], the target named is Bifunctional peptidase and arginyl-hydroxylase JMJD5 (Homo sapiens, UniProt Q8N371). Nature of the assay: Inhibition of N-terminal his6-tagged-thioredoxin-tagged human recombinant JMJD5 expressed in Escherichia coli using RPS6 as substrate by SPE-MS analysis.

Calls of active or inactive are those of the source. No cut-off for these calls is given here.

Bifunctional peptidase and arginyl-hydroxylase JMJD5, sequence (Q8N371 whole entry): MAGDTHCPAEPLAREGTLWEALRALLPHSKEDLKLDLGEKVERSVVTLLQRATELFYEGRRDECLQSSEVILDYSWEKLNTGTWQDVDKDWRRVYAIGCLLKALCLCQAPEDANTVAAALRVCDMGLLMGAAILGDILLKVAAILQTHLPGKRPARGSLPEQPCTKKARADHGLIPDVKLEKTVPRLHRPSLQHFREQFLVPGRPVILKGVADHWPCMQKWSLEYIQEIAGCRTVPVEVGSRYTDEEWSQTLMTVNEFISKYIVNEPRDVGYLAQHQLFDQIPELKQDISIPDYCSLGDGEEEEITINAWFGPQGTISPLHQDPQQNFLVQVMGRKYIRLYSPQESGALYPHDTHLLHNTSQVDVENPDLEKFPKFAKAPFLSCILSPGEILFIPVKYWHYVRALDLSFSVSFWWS

`COC(=O)c1cc(C(=O)OC)c(NCc2ccccc2C2CC2)cn1`: the result in the assay with A549 [1], with A549 [2], in the assay on A549 [3] and with A549 [4] was Active.

For the molecule `COC(=O)c1cc(C(=O)OC)c(NCc2ccccc2OC)cn1`, the result in the assay on A549 [1], in the assay with A549 [2], in the assay with A549 [3] and in the assay on A549 [4] was Active.

In the case of `O=C(O)c1ccnc(C(=O)O)c1C(F)(F)F`, the IC50 entry in assay [5] is listed as “Not Active”.

In turn, `O=C(O)c1ccnc(C(=O)O)c1Nc1ccccc1[N+](=O)[O-]` came in with an IC50 in assay [6] of 56 µM.

`O=C(O)c1cc(C(=O)O)c(NCc2ccccc2C2CC2)cn1` gave a half-inhibitory concentration (IC50) in assay [7] of more than 50 µM.

With `COc1ccccc1CNc1cnc(C(=O)O)cc1C(=O)O`, the IC50 in assay [8] was found to be 0.7 µM.

Consider `O=C(O)c1cc(C(=O)O)c(C(F)(F)F)cn1`, for which the IC50 result in assay [5] is “Not Active”.
